Test results reported in patent US11351178B2, “Selective HDAC6 inhibitors” (ITALFARMACO S.P.A., priority 2017, dated 2022).

Columns and labels:
[1] = Stability in human plasma; assay type: in vitro ADME; details: after 4 hours, 37° C.
Method in brief: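 Compounds incubated at 37° C in rat or human plasma at 50 μM (UV/HPLC) or 1 or 2 μM (LC-MS/MS) for 0–4 h. Reaction stopped with acidified acetonitrile on ice; percent remaining versus initial amount and plasma half-life calculated.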

[2] = Stability to Phase I metabolism in human S9 liver fraction; assay type: in vitro ADME
Method in brief: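 Compounds were incubated with rat or human liver S9 fraction at 37 °C for up to 90 min. Reactions were quenched on ice with acidified acetonitrile and analysed by HPLC-UV or LC-MS/MS. Percent remaining versus time zero and intrinsic clearance were calculated.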

[3] = system: B 697 promyelocytic cell line; experiment: Cytotoxicity on 697 cell line (CellTiter 96); assay type: cell-based; details: 72 hours incubation, read-out: 697 TOXICITY
Method in brief: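 Cells seeded (2×10^4/well for 697, 5×10^5/well for PBMCs); compounds added after 24 h at 1–10000 nM (697) or 1.5–10000 nM (PBMCs) and incubated 72 h. Viability read by CellTiter 96 Aqueous One tetrazolium assay of mitochondrial function.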

[4] = biological target: T1, HDAC2 (Homo sapiens, UniProt Q92769); experiment: Enzymatic test HDAC2; assay type: biochemical; details: Table 3
T1 construct: purchased BPS 50002
T1 sequence (Q92769 whole entry): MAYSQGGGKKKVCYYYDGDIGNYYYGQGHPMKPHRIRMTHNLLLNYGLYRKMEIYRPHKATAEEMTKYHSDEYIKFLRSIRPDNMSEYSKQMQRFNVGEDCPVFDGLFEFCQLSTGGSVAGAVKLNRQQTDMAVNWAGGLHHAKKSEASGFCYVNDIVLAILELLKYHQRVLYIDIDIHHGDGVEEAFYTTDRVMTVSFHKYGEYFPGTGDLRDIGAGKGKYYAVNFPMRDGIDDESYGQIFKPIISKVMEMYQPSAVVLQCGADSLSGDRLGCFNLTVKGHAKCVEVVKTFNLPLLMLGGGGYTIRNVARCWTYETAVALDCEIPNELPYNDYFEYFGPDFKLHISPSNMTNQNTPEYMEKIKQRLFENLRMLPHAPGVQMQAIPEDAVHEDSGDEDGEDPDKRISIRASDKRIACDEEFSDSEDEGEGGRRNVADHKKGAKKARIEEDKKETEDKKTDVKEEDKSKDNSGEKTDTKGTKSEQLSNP

[5] = biological target: T2, HDAC10 (Homo sapiens, UniProt Q969S8); experiment: Enzymatic test HDAC10; assay type: biochemical; details: Table 3
T2 construct: purchased BPS 50010
T2 sequence (Q969S8 1-669): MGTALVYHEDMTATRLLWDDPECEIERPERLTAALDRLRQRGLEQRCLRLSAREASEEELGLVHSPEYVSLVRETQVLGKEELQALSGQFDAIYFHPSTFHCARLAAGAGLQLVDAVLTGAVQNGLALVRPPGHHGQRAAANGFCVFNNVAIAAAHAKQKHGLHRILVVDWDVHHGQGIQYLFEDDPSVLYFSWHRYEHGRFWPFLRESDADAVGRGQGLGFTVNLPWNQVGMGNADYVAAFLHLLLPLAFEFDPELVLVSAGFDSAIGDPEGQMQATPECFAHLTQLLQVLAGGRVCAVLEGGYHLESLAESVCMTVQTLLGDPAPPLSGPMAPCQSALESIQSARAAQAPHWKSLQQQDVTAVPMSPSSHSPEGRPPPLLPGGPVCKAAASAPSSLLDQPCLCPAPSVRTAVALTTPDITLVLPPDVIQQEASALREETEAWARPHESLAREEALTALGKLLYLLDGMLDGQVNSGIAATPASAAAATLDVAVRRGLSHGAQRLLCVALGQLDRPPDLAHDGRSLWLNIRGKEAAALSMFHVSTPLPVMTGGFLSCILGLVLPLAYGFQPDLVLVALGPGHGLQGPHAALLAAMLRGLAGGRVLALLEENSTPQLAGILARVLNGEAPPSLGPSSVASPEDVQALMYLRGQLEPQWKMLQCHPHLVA

[6] = biological target: T3, HDAC7 (Homo sapiens, UniProt Q8WUI4); experiment: Enzymatic test HDAC7; assay type: biochemical; details: Table 3
T3 construct: purchased BPS 50007
T3 sequence (Q8WUI4 518-952 limits assumed): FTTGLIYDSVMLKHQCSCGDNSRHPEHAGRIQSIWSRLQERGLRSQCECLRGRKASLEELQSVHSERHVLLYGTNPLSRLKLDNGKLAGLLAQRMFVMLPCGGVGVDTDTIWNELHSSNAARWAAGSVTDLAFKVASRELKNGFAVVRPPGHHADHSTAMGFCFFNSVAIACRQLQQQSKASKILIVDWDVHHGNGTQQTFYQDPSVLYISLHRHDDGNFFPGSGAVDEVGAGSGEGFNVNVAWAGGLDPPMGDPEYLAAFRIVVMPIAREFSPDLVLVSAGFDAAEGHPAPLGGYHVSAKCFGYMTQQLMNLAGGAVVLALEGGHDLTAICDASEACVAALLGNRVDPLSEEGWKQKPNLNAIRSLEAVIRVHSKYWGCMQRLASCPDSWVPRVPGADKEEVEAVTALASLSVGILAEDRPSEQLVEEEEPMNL
Description: (§1) After a period of incubation at 30° C. (incubation times vary for different isoforms and are shown in table 1) 25 μL of solution containing the substrate were added. As substrate, FLUOR DE LYS® deacetylase substrate (Enzo Life Sciences, cat #BML-K1104, FdL), FLUOR DE LYS®-Green substrate (Enzo Life Sciences, cat #BML-K1572 FdL_G) and trifluoroacetyl-L-lysine (Tfal)-2× concentrated solution in 25 mM Tris-HCl, pH 8, 130 mM NaCl 0.05% Tween-20 10% glycerol) were used. Following a reaction period at 30° C.

[7] = biological target: T4, HDAC4 (Homo sapiens, UniProt P56524); experiment: Enzymatic test HDAC4; assay type: biochemical; details: Table 3
T4 construct: purchased BPS 50004
T4 sequence (P56524 627-1084 limits assumed): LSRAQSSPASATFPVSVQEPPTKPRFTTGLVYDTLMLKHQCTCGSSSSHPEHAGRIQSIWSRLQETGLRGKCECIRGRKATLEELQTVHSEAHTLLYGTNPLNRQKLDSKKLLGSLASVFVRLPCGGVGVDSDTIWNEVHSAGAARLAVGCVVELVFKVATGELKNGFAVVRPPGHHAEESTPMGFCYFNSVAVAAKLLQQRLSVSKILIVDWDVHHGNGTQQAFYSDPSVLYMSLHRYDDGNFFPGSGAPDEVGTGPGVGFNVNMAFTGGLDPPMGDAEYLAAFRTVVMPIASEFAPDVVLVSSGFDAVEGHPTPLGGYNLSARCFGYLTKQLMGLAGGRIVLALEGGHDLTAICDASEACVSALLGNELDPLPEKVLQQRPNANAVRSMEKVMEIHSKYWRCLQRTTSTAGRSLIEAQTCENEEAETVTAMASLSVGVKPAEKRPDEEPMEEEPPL
Description: as §1

[8] = biological target: T5, HDAC5 (Homo sapiens, UniProt Q9UQL6); experiment: Enzymatic test HDAC5; assay type: biochemical; details: Table 3
T5 construct: purchased BPS 50005
T5 sequence (Q9UQL6 656-1122 limits assumed): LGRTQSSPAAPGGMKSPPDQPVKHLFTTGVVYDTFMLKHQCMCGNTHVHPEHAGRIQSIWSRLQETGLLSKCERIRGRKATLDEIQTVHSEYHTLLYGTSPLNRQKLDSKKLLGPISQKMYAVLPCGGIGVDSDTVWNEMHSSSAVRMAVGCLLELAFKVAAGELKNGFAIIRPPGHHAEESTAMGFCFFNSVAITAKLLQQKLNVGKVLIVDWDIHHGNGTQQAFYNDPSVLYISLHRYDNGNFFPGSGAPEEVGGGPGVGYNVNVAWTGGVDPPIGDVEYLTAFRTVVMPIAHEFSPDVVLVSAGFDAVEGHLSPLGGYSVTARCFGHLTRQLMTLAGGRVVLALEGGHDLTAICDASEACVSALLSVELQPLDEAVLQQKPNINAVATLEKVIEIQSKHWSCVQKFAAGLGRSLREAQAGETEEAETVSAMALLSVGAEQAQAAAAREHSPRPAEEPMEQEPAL
Description: as §1

[9] = biological target: T6, HDAC8 (Homo sapiens, UniProt Q9BY41); experiment: Enzymatic test HDAC8; assay type: biochemical; details: Table 3
T6 construct: purchased BPS 50008
T6 sequence (Q9BY41 1-377): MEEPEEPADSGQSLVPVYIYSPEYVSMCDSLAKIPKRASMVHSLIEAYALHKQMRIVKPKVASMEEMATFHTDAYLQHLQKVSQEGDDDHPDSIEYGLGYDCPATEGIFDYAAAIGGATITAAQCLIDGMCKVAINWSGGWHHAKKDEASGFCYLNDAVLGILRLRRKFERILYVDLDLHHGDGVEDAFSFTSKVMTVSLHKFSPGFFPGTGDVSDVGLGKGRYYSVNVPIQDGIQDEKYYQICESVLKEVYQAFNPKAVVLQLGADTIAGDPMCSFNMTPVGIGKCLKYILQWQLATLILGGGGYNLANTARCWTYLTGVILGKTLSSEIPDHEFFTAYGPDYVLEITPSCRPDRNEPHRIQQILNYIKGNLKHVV

[10] = human liver S9 fraction, after 90 min, 37° C.

Row | residual percentage in human S9 fraction ([2]; human, 90 min, pH 7.4) | IC50 [4] | IC50 [5] | IC50 [6] | IC50 [7] | IC50 [8] | IC50 [9] | SMILES | residual percentage in human plasma [1] | residual percentage in human S9 fraction [2, 10] | IC50 [3]
1 |  |  |  |  |  |  |  | O=C(NO)c1ccc(Cn2nnnc2-c2cccs2)cc1 [comp. 8, N-hydroxy-4-((5-(thiophen-2-yl)-1H-tetrazol-1-yl)methyl)benzamide] | 91% | 100% | 8880 nM
2 | 83% |  |  |  |  |  |  | O=C(NO)c1cc(F)c(Cn2nnnc2-c2ncccn2)c(F)c1 [comp. 125, 3,5-difluoro-4-[(5-pyrimidin-2-yltetrazol-1-yl)methyl]benzenecarbohydroxamic acid] | 77% |  | > 10000 nM
3 |  | 810 nM | 441 nM | 608 nM | 1910 nM | 2360 nM | 413 nM | O=C(NO)c1ccc(Cn2nnc(-c3ccccc3F)n2)cc1 [comp. 33, 4-[[5-(2-fluorophenyl)tetrazol-2-yl]methyl]benzenecarbohydroxamic acid] |  |  | 
4 |  |  |  |  |  |  |  | Cn1c(Sc2c(F)cc(C(=O)NO)cc2F)nnc1-c1cccc(CN2CCCCCC2)c1 [comp. 167, 4-[[5-[3-(azepan-1-ylmethyl)phenyl]-4-methyl-1,2,4-triazol-3-yl]sulfanyl]-3,5-difluoro-benzenecarbohydroxamic acid] | 91% | 78% | 43000 nM
5 |  | 4240 nM | 1480 nM | 1990 nM | 1610 nM | 2660 nM | 186 nM | Cn1c(Sc2c(F)cc(C(=O)NO)cc2F)nnc1C(c1ccccc1)c1ccccc1 [comp. 98, 4-[(5-benzhydryl-4-methyl-1,2,4-triazol-3-yl)sulfanyl]-3,5-difluoro-benzenecarbohydroxamic acid] |  |  | 
6 |  | 6750 nM | 1910 nM | 1310 nM | 541 nM | 687 nM |  | O=C(NO)c1cc(F)c(Cn2nnc(-c3scc4c3OCCO4)n2)c(F)c1 [comp. 79, 4-[[5-(2,3-dihydrothieno[3,4-b][1,4]dioxin-5-yl)tetrazol-2-yl]methyl]-3,5-difluoro-benzenecarbohydroxamic acid] |  |  | 22200 nM
7 |  |  |  |  |  |  |  | Cn1c(Sc2c(F)cc(C(=O)NO)cc2F)nnc1-c1cccnn1 [comp. 179, 3,5-difluoro-4-[(4-methyl-5-pyridazin-3-yl-1,2,4-triazol-3-yl)sulfanyl]benzenecarbohydroxamic acid] | 100% | 79% | 50300 nM
8 |  | 1570 nM | 636 nM | 1030 nM | 1330 nM | 1170 nM | 270 nM | Nn1c(Sc2ccc(C(=O)NO)cc2)nnc1-c1ccc(OC(F)F)cc1 [comp. 28, 4-[[4-amino-5-[4-(difluoromethoxy)phenyl]-1,2,4-triazol-3-yl]sulfanyl]benzenecarbohydroxamic acid] |  |  | 
9 |  | 17700 nM | 1450 nM | 1080 nM | 831 nM | 1190 nM | 1080 nM | O=C(NO)c1cc(F)c(Cn2nnc(-c3cccs3)n2)c(F)c1 [comp. 65, 3,5-difluoro-4-[[5-(2-thienyl)tetrazol-2-yl]methyl]benzenecarbohydroxamic acid] |  |  | 
10 |  | 958 nM | 398 nM | 611 nM | 1950 nM | 1950 nM | 455 nM | O=C(NO)c1ccc(Cn2nnc(-c3cccs3)n2)cc1 [comp. 50, 4-[[5-(2-thienyl)tetrazol-2-yl]methyl]benzenecarbohydroxamic acid] |  |  | 
11 |  | 2030 nM | 1100 nM | 6670 nM | 4240 nM | 4810 nM | 2830 nM | O=C(NO)c1ccc(Cn2nnc(-c3ccc(C(F)(F)F)cc3)n2)cc1 [comp. 23, 4-[[5-[4-(trifluoromethyl)phenyl]tetrazol-2-yl]methyl]benzenecarbohydroxamic acid] |  |  | 
12 | 78% | > 30000 nM | 14100 nM | 1090 nM | 1460 nM | 1850 nM |  | Cn1c(Sc2c(F)cc(C(=O)NO)cc2F)nnc1-c1cccc2ccccc12 [comp. 2, 3,5-difluoro-N-hydroxy-4-((4-methyl-5-(naphthalen-1-yl)-4H-1,2,4-triazol-3-yl)thio)benzamide] | 71% |  | 6080 nM
13 |  |  |  |  |  |  |  | Cn1c(Sc2c(F)cc(C(=O)NO)cc2F)nnc1-c1ncccc1F [comp. 180, 3,5-difluoro-4-[[5-(3-fluoro-2-pyridyl)-4-methyl-1,2,4-triazol-3-yl]sulfanyl]benzenecarbohydroxamic acid] | 97% | 80% | 40200 nM
14 |  |  |  |  |  |  |  | Cn1c(Sc2c(F)cc(C(=O)NO)cc2F)nnc1-c1ccc(CN2CCCCCC2)cc1 [comp. 168, 4-[[5-[4-(azepan-1-ylmethyl)phenyl]-4-methyl-1,2,4-triazol-3-yl]sulfanyl]-3,5-difluoro-benzenecarbohydroxamic acid] |  |  | 36900 nM
15 |  |  |  |  |  |  |  | Nc1ccc(-c2nnn(Cc3c(F)cc(C(=O)NO)cc3F)n2)cc1 [comp. 171, 4-[[5-(4-aminophenyl)tetrazol-2-yl]methyl]-3,5-difluoro-benzenecarbohydroxamic acid] | 88% | 74% | 6140 nM
16 |  |  |  |  |  |  |  | O=C(NO)c1cc(F)c(Cc2nnc(-c3ccncc3)s2)c(F)c1 [compound 195, 3,5-difluoro-4-[[5-(4-pyridyl)-1,3,4-thiadiazol-2-yl]methyl]benzenecarbohydroxamic acid] | 93% | 68% | 3120 nM

Row | SMILES | residual percentage in human S9 fraction ([2]; human, 90 min, pH 7.4) | IC50 [4] | IC50 [5] | IC50 [6] | IC50 [7] | IC50 [8] | IC50 [9] | residual percentage in human plasma [1] | residual percentage in human S9 fraction [2, 10] | IC50 [3]
17 | O=C(NO)c1cc(F)c(Cn2nnnc2-c2cccs2)c(F)c1 [comp. 15, 3,5-difluoro-N-hydroxy-4-((5-(thiophen-2-yl)-1H-tetrazol-1-yl)methyl)benzamide] | 83% | 8800 nM | 8630 nM |  | 660 nM | 706 nM | 999 nM | 91% |  | 8720 nM
